Laboratory results reported in patent publication US20030105043A1, “Apoptosis-inducing ribozymes” (priority 2000, published 2003).

Legend:
rat MT-I cRNA = assay: cell-free ribozyme cleavage of labeled rat MT-I cRNA; type: biochemical; conditions: for cleavage activity on rat MT-I cRNA: cell-free, excess unlabeled ribozyme, 37° C., 16 hours
Source text: (§1) Bluescript plasmids containing the rat MT cDNA (pBSMT-I and pBSMT-2) were constructed as described above. A plasmid containing the mouse MT-I (pSP-MT-I) and a second plasmid (SDF 102.C1) containing MT-II cDNA (Durnam et al., 1980, Proc. Natl. Acad. Sci. USA 77:6511-6515) were linearized with HindIII and in vitro transcribed into labeled MT cRNAs with [α-32P]UTP, T3 RNA polymerase (Promega, Madison, Wis.), and the Maxiscript In Vitro Transcription Kit (Ambion, Inc, Austin, Tex.). Ribozymes were generated as unlabeled molecules from pRz1-2 and pRz4-9 using either the T3 or T7 promoter of the pClneo vectors, and unlabeled nucleoside triphosphates.
(§2) To test ribozyme activity, radiolabeled rat metallothionein cRNAs were synthesized by in vitro transcription from linearized plasmids and incubated with an excess of unlabeled ribozymes at 37° C. for 16 hours. The enzymatic activity was terminated with an equal volume of stop buffer. After denaturing at 95° C. for 2 minutes, the cleavage products were separated in a 6% polyacrylamide/8M urea gel, dried and exposed to X-ray film to obtain autoradiograms. The uncut rat MT-I (poly A) and MT-II (poly A) molecules were 435 nucleotides and 350 nucleotides, respectively. Rz1-2-mediated cleavage fragments of rat MT-I(poly A) were 360 nucleotides and 115 nucleotides in length. The cleavage fragments produced by Rz4-9 activity on MT-II(polyA) were 260 nucleotides and 90 nucleotides in length.
(§3) Initial experiments were designed to determine effective and linear catalytic temperature ranges for Rz1-2 and Rz4-9. A ribozyme and a labeled substrate were mixed in a 1:1 molar ratio in a 10 μL reaction mixture composed of 40 mM Tris-HCl (pH 7.5) and 20 mM MgCl2 (previously determined to be optimal for cleavage activity). The reaction mixture was denatured for 2 minutes at 95° C. and then snapcooled on ice for 5 minutes. Catalytic reactions were conducted at 25° C., 37° C., and 50° C. for 1, 3, or 16 hours. […] An excess of unlabeled anti-MT Rzs (Rz1-2 and Rz4-9) and their corresponding mutants (Rz2-6 and Rz3-3) were mixed with labeled rat or mouse MT-I or MT-II cRNA and incubated at 37° C. for 16 hours. At the end of these experiments, all catalytic reactions were terminated with an equal volume of stop buffer (10 mM EDTA, 90% formamide, 0.1% bromophenol blue, and 0.1% xylene cyanol). After denaturing at 95° C. for 2 minutes, the cleavage products were separated in a 6% polyacrylamide/8M urea gel, dried, and exposed to X-ray film to obtain autoradiograms. The sizes of the uncut rat MT-I (poly A) and MT-II (poly A) molecules were 435 nucleotides and 350 nucleotides, respectively. Rz1-2-mediated cleavage fragments of rat MT-I(poly A) were of 360 nucleotides and 115 nucleotides in length and those produced by Rz4-9 activity on MT-II(polyA) were 260 nucleotides and 90 nucleotides. Incubation with the mutant Rzs, Rz2-6 or Rz3-3, produced no products.
(§4) Hammerhead ribozymes were tested for specific endonuclease activity under cell-free conditions. In vitro transcription from pBSMT-I and pBSMT-II using 2.5 μg HindIII linearized plasmid and T3 RNA polymerase yielded 5 μg of rat MT-I and MT-II cRNA. In parallel, mouse MT-I and MT-II cRNA were generated from plasmids containing mouse MT sequences (pSP-MT-I). These molecules containing the entire metallothionein coding region and a poly (A) tail 435 nucleotides (rat MT-I cRNA), 350 nucleotides (rat MT-II cRNA), 380 nucleotides ([…]) and 460 nucleotides ([…]) in length. They were used as substrate for the ribozyme reactions. […] Similar sequence specificity data were obtained for mouse metallothionein cRNAs. All cleavage products were of the predicted sizes.

rat MT-II cRNA = assay: cell-free ribozyme cleavage of labeled rat MT-II cRNA; type: biochemical; conditions: for cleavage activity on rat MT-II cRNA: cell-free, excess unlabeled ribozyme, 37° C., 16 hours
Source text: as §1, §2, §3, §4

[1] = cell-free cleavage, 1:1 molar ratio

Row | Substance | optimal Mg^2+ for ribozyme activity (rat MT-I cRNA; cell-free cleavage) [mM] | period over which ribozyme remained active (rat MT-I cRNA; cell-free cleavage) [h] | temperature at which ribozyme is most effective (rat MT-I cRNA; cell-free cleavage) [°C] | temperature range over which ribozyme is active (rat MT-I cRNA; [1]) | cleavage activity on rat MT-I cRNA (rat MT-I cRNA) | cleavage activity on rat MT-II cRNA (rat MT-II cRNA) | optimal Mg^2+ for ribozyme activity (rat MT-II cRNA; cell-free cleavage) [mM] | period over which ribozyme remained active (rat MT-II cRNA; cell-free cleavage) [h] | temperature at which ribozyme is most effective (rat MT-II cRNA; cell-free cleavage) [°C] | temperature range over which ribozyme is active (rat MT-II cRNA; [1])
1 | Rz1-2: hammerhead ribozyme, SEQ ID NO:6, designed to cleave mouse and rat MT-I mRNA (GCGCCUUUGCACUGAUGAGUCCGUGAGGACGAAACACAGCCCU; listed as RNA, chemistry not given here) | 20 | 16 | 37 | 25-50 °C | active | no activity | – | – | – | –
2 | Rz4-9: hammerhead ribozyme, SEQ ID NO:7, designed to cleave MT-II mRNA (CCUCUUUGCACUGAUGAGUCCGUGAGGACGAAAUGCAGCCCU; listed as RNA, chemistry not fully specified) | – | – | – | – | did not mediate rat MT-I cRNA cleavage | cut only rat MT-II cRNAs | 20 | 16 | 37 | 25-50 °C
